Holding throughout (assay type): binding
In one assay the target is Mu opioid receptor (Homo sapiens, UniProt P35372). In words: Affinity at the μ receptor ([35S]GTPγS membrane assay). The note with it: opioid receptor membranes, 30 min room temperature, read-out: calc Ki (nM) μ. Here is the method:
(§1) Affinity at the μ, k and δ receptors for preferred compounds was obtained according to the following assays:
(§2) Mu, kappa or delta opioid receptor membrane solution was prepared by sequentially adding final concentrations of 0.075 μg/μl of the desired membrane protein, 10 μg/ml saponin, 3 μM GDP and 0.20 nM [^35S]GTPγS to binding buffer (100 mM NaCl, 10 mM MgCl2, 20 mM HEPES, pH 7.4) on ice. The prepared membrane solution (190 μl/well) was transferred to 96-shallow well polypropylene plates containing 10 μl of 20× concentrated stock solutions of agonist prepared in DMSO. Plates were incubated for 30 min at room temperature with shaking. Reactions were terminated by rapid filtration onto 96-well Unifilter GF/B filter plates (Packard) using a 96-well tissue harvester (Brandel) and followed by three filtration washes with 200 μl ice-cold binding buffer (10 mM NaH2PO4, 10 mM Na2HPO4, pH 7.4). Filter plates were subsequently dried at 50° C. for 2–3 hours. Fifty μl/well scintillation cocktail (MicroScint20, Packard) was added and plates were counted in a Packard Top-Count for 1 min/well.
(§3) Data were analyzed using the curve fitting functions in GraphPad PRISM™, v.

Another assay deals with kappa opioid receptor (Homo sapiens, UniProt P41145). In words: Affinity at the k receptor ([35S]GTPγS membrane assay). The note with it: opioid receptor membranes, 30 min room temperature, read-out: calc Ki (nM) k. On the procedure: as §1, §2, §3
The target of another assay is delta opioid receptor (Homo sapiens, UniProt P41143). In words: Affinity at the δ receptor ([35S]GTPγS membrane assay). The note with it: opioid receptor membranes, 30 min room temperature, read-out: calc Ki (nM) δ2. Here is the method:
as §1, §2, §3

Chain of delta opioid receptor (P41143 whole entry): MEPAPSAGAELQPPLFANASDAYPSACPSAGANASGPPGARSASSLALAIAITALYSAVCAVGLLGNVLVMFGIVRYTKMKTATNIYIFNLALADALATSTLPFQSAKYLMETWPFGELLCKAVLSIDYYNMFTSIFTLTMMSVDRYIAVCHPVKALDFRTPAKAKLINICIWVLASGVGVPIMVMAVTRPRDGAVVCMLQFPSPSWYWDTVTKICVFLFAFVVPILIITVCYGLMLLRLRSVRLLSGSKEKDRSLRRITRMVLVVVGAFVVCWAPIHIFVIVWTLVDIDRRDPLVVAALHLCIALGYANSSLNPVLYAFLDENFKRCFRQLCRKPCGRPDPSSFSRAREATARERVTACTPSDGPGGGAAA
Chain of kappa opioid receptor (P41145 whole entry): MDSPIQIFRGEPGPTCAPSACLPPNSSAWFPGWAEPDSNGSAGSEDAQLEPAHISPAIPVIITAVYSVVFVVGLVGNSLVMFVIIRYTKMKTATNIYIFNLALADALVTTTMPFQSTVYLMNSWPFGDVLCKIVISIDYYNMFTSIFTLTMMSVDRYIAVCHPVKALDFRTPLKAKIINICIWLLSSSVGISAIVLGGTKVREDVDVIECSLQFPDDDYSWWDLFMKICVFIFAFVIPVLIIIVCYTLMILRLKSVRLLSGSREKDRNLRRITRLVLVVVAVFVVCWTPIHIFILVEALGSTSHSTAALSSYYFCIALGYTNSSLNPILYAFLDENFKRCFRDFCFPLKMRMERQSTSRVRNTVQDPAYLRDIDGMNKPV
Chain of Mu opioid receptor (P35372 whole entry): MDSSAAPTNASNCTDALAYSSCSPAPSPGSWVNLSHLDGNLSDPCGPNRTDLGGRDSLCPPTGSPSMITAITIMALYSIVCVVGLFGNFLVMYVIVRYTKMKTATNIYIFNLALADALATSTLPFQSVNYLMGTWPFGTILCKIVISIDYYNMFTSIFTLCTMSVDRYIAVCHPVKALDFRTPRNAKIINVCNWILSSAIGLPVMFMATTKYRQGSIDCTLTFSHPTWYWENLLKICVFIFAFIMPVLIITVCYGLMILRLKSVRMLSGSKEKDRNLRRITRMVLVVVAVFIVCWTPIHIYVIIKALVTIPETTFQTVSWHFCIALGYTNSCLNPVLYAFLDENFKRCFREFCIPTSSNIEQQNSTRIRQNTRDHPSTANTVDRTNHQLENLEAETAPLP

The term Ki denotes the equilibrium dissociation constant of an inhibitor or competing ligand from its target. `CCCCN(CCCC)CCN(Cc1ccccc1)C(=O)Cc1ccccc1` [1-[1-benzyl-1-(2-phenyl-1-oxo-ethyl)-amino]-2-dibutylamino-ethyl]: the Ki on Mu opioid receptor was 40 nM; at kappa opioid receptor it was 3500 nM; at delta opioid receptor, more than 10000 nM.

Source of the values: patent publication US6984664B2, “Tertiary amino compounds having opioid receptor affinity” (Euro-Celtique, S.A., priority 1999, dated 2006).
